Laboratory results: the supplement of paper PMC10307832

How the values were obtained:
Experiment in all cases: relative viability (nuclei count vs DMSO), 5 days (fraction); higher = more cells survive
[1] = compound: COC1=CC=C(C=C1)CN2C=CC3=C2C=C(C=C3)C(=O)NO + CCNC(=O)c1noc(-c2cc(C(C)C)c(O)cc2O)c1-c1ccc(CN2CCOCC2)cc1 [Luminespib] (partner 0.01 µM)
Outline: (§1)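 Lung cancer cell lines in 1536-well plates got either a single drug or a fixed anchor-drug dose together with five library-drug doses (not always all listed) in √10 steps, by pin tool, on the day after seeding. Nuclei were counted after 5 days, and relative viability is the treated-to-vehicle ratio of nuclei counts. Values are medians of duplicate plates.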

[2] = compound: C[C@]1(c2nc3c(C(N)=O)cccc3[nH]2)CCCN1 [Veliparib] + CC(=O)Nc1cccc(-n2c(=O)n(C3CC3)c(=O)c3c(Nc4ccc(I)cc4F)n(C)c(=O)c(C)c32)c1 [Trametinib] (partner 0.02 µM)
Outline: as §1

[3] = compound: C[C@]1(c2nc3c(C(N)=O)cccc3[nH]2)CCCN1 [Veliparib] + C[C@]1(O)C[C@@H](c2nc(-c3ccc4ccc(-c5ccccc5)nc4c3)c3c(N)nccn32)C1 [Linsitinib] (partner 1 µM)
Outline: as §1

[4] = compound: C[C@]1(c2nc3c(C(N)=O)cccc3[nH]2)CCCN1 [Veliparib] + Nc1ncn([C@H]2C[C@H](O)[C@@H](CO)O2)c(=O)n1 [Decitabine] (partner 2 µM)
Outline: as §1

Row | Cell Line | relative viability ([1]; first compound 0.08 µM) | relative viability ([1]; first compound 0.253 µM) | relative viability ([1]; first compound 0.8 µM) | relative viability ([1]; first compound 2.53 µM) | relative viability ([1]; first compound 8 µM) | relative viability ([2]; first compound 0.02 µM) | relative viability ([2]; first compound 0.06325 µM) | relative viability ([2]; first compound 0.2 µM) | relative viability ([2]; first compound 0.6325 µM) | relative viability ([2]; first compound 2 µM) | relative viability ([3]; first compound 0.02 µM) | relative viability ([3]; first compound 0.06325 µM) | relative viability ([3]; first compound 0.2 µM) | relative viability ([3]; first compound 0.6325 µM) | relative viability ([3]; first compound 2 µM) | relative viability ([4]; first compound 0.02 µM) | relative viability ([4]; first compound 0.06325 µM) | relative viability ([4]; first compound 0.2 µM) | relative viability ([4]; first compound 0.6325 µM) | relative viability ([4]; first compound 2 µM)
1 | COR-L 105 | 0.858 | 0.871 | 0.893 | 0.713 | 0.485 | 0.448 | 0.463 | 0.475 | 0.432 | 0.468 | 0.984 | 0.86 | 0.982 | 0.915 | 0.915 | 0.634 | 0.66 | 0.744 | 0.59 | 0.599
2 | EKVX | 0.864 | 0.896 | 0.913 | 0.858 | 0.783 |  | 0.317 | 0.329 | 0.245 | 0.331 | 0.948 | 0.912 | 0.952 | 0.86 | 1.02 |  | 0.319 | 0.364 | 0.338 | 0.294
3 | EMC-BAC-2 | 0.964 | 1.25 | 1.16 | 1.21 | 1.11 | 1.01 |  | 0.922 | 0.752 | 0.913 | 0.841 | 0.801 | 0.886 | 0.793 | 0.828 | 0.997 |  | 0.936 | 0.874 | 0.984
4 | EPLC-272H | 0.262 |  | 0.333 | 0.4 | 0.235 |  | 0.303 | 0.297 | 0.268 | 0.319 |  | 1.11 | 1.18 | 1.08 | 1.24 |  | 0.312 | 0.387 | 0.331 | 0.393
5 | H3255 | 0.846 | 0.789 | 1.03 | 0.896 | 0.589 | 0.614 | 0.572 | 0.672 | 0.624 | 0.632 | 0.882 | 0.981 | 0.953 | 0.833 | 0.981 | 0.615 | 0.538 | 0.713 | 0.567 | 0.589
6 | HARA |  | 0.552 | 0.745 | 0.111 | 0.548 | 0.745 |  | 0.949 | 0.796 | 0.798 | 1.15 | 0.992 | 0.908 | 0.743 | 1.07 | 0.565 |  | 0.47 | 0.499 | 0.311
7 | HCC-15 | 0.319 | 0.277 | 0.304 | 0.45 | 0.34 | 0.422 | 0.374 | 0.429 | 0.357 | 0.4 | 0.928 | 0.84 | 0.909 | 0.83 | 0.921 | 0.572 | 0.56 | 0.589 | 0.562 | 0.502
8 | HCC-44 | 0.908 | 1.05 | 1.01 | 0.936 | 0.837 | 1.07 | 0.938 | 1.14 | 1.04 | 1.06 | 0.665 | 0.5 | 0.636 | 0.622 | 0.694 | 0.941 | 0.797 | 0.907 | 0.857 | 0.902
9 | HCC-827 | 0.537 | 0.58 | 0.461 | 0.51 | 0.652 | 0.59 | 0.514 | 0.529 | 0.504 | 0.516 | 0.96 | 0.899 | 0.816 | 0.949 | 0.939 | 0.298 | 0.303 | 0.292 | 0.241 | 0.3
10 | HOP-62 | 0.756 | 0.876 | 0.939 | 0.951 | 0.94 | 0.375 | 0.322 | 0.351 | 0.39 | 0.407 | 1 | 0.923 | 0.738 | 0.987 | 0.983 | 0.221 | 0.198 | 0.164 | 0.197 | 0.251
11 | LC-2-ad | 0.993 | 0.82 | 0.992 | 1.06 | 0.791 | 0.897 | 0.904 | 0.914 | 0.891 | 0.912 |  | 0.83 | 0.787 | 0.819 | 0.786 | 0.775 | 0.801 | 0.706 | 0.673 | 0.763
12 | LCLC-97TM1 | 0.412 | 0.797 | 0.801 | 0.803 | 0.724 | 0.221 | 0.178 | 0.202 | 0.183 | 0.198 | 0.185 | 0.187 | 0.194 |  | 0.25 | 0.205 | 0.206 | 0.237 | 0.208 | 0.194
13 | LCLC-103H | 0.938 | 0.99 | 0.948 | 1.03 | 0.883 | 0.764 | 0.606 | 0.668 | 0.74 | 0.718 | 1.1 | 0.982 | 1.11 | 1.01 | 1.08 | 0.809 | 0.662 | 0.667 | 0.705 | 0.714
14 | LK-2 |  | 0.21 | 0.168 | 0.194 | 0.157 | 0.773 | 0.773 | 0.788 | 0.763 | 0.766 | 0.689 | 0.592 | 0.476 | 0.558 | 0.548 | 0.259 | 0.278 | 0.273 | 0.283 | 0.225
15 | LOU-NH91 | 0.316 | 0.345 | 0.322 | 0.341 | 0.359 | 0.814 | 0.789 | 0.793 | 0.725 | 0.811 | 0.9 | 0.932 | 0.971 | 0.901 | 1.02 | 0.847 | 0.785 | 0.792 | 0.782 | 0.837
16 | LU99A |  | 0.227 | 0.288 | 0.29 | 0.277 | 0.552 | 0.536 | 0.566 | 0.537 | 0.571 | 0.579 | 0.61 | 0.565 | 0.475 | 0.525 | 1.01 | 0.875 | 0.932 | 0.825 | 0.866
17 | LXF-289 |  | 0.732 | 0.709 | 0.714 | 0.632 | 0.671 | 0.691 | 0.668 | 0.681 | 0.657 | 0.93 | 0.955 | 0.954 | 0.922 | 0.925 | 0.362 | 0.311 | 0.342 | 0.283 | 0.332
18 | NCI-H23 |  |  | 0.226 | 0.221 | 0.204 | 0.448 | 0.413 | 0.509 | 0.4 | 0.469 | 0.775 | 0.504 | 0.574 | 0.505 | 0.65 | 0.318 | 0.289 | 0.306 | 0.296 | 0.334
19 | NCI-H322M |  | 0.867 | 0.909 | 0.841 | 0.664 |  | 0.52 | 0.465 | 0.5 | 0.494 | 1.03 | 0.864 | 0.885 | 0.826 | 0.972 |  | 0.608 | 0.682 | 0.656 | 0.655
20 | NCI-H358 | 0.25 | 0.428 | 0.374 | 0.434 | 0.213 | 0.0965 | 0.12 | 0.195 | 0.115 | 0.152 |  | 0.815 | 0.775 | 0.667 | 0.772 | 0.208 | 0.196 | 0.181 | 0.156 | 0.18
21 | NCI-H441 | 0.27 | 0.322 | 0.37 | 0.422 | 0.322 | 0.489 | 0.497 | 0.488 | 0.477 | 0.568 | 0.506 | 0.589 | 0.563 | 0.584 | 0.541 | 0.227 | 0.216 | 0.179 | 0.212 | 0.228
22 | NCI-H460 | 0.0291 | 0.0369 | 0.0487 | 0.0276 | 0.0281 | 0.185 | 0.0956 | 0.1 | 0.109 | 0.202 |  | 0.806 | 0.664 | 0.527 | 0.72 | 0.407 | 0.255 | 0.203 | 0.212 | 0.132
23 | NCI-H520 |  | 0.207 | 0.193 | 0.227 | 0.226 | 0.749 | 0.68 | 0.721 | 0.646 | 0.705 | 0.984 | 1.03 | 0.966 | 0.922 | 1.04 | 0.427 | 0.404 | 0.414 | 0.375 | 0.35
24 | NCI-H596 | 0.934 | 0.955 | 0.972 | 1.01 | 0.863 | 0.83 | 0.666 | 0.77 | 0.806 | 0.793 | 1 | 1.02 | 1.07 | 0.893 | 0.99 | 1.14 | 1 | 0.969 | 0.814 | 0.965
25 | NCI-H647 | 0.23 | 0.216 | 0.226 | 0.185 | 0.111 | 0.502 | 0.451 | 0.483 | 0.478 | 0.481 | 1.09 | 1.01 | 0.989 | 1.02 | 1.09 | 0.376 | 0.346 | 0.298 | 0.299 | 0.26
26 | NCI-H650 | 0.816 | 0.758 | 0.774 | 0.745 | 0.574 | 0.999 | 0.999 | 0.988 | 0.938 | 0.971 | 0.766 | 0.716 | 0.864 | 0.875 | 0.448 | 0.309 | 0.283 | 0.265 | 0.278 | 0.317
27 | NCI-H661 |  | 0.873 | 0.883 | 0.88 | 0.765 | 0.525 | 0.646 | 0.584 | 0.543 | 0.64 | 0.4 | 0.59 | 0.604 | 0.496 | 0.666 | 0.555 | 0.545 | 0.481 | 0.424 | 0.443
28 | NCI-H727 | 0.345 | 0.406 | 0.311 | 0.436 | 0.323 | 0.379 | 0.39 | 0.42 | 0.428 | 0.416 | 0.284 | 0.219 | 0.253 | 0.293 | 0.24 | 0.865 | 0.758 | 0.856 | 0.706 | 0.865
